The target in one data set is JAK3/JAK1 (Homo sapiens, UniProt P23458+P52333). Nature of the data set: Inhibition of JAK1/JAK3 in human primary T-cells assessed as reduction of IL-2 stimulated STAT5 phosphorylation preincubated for 1 hr followed by IL-2 stimulation for 15 mins by FACS method. Format: cell-based, T-cell.
Data set [1] is described as follows: Inhibition of IL-2 stimulated IFN-gamma production in BALB/c mouse at 40 mg/kg, po pretreated for 30 mins followed by IL-2 stimulation and measured after 4 hrs by ELISA. Format: functional. The note with it: time 4.5 hrs. Background: ELISA stands for enzyme-linked immunosorbent assay.
A short description of data set [2]: Oral bioavailability in Sprague-Dawley rat 5 mg/kg. Format: ADME, organism-based. The following applies: in vivo.
Data set [3] has as its target T1, Cytochrome P450 3A4 (Homo sapiens, UniProt P08684). Nature of the data set: Inhibition of CYP3A4 (unknown origin) in absence of NADPH. Format: ADME.
The nature of data set [4]: Inhibition of IL-2 stimulated IFN-gamma production in BALB/c mouse at 5 mg/kg, po pretreated for 30 mins followed by IL-2 stimulation and measured after 4 hrs by ELISA. Type of data set: functional. The note with it: time 4.5 hrs.
Data set [5] has as its target Tyrosine-protein kinase JAK2 (Homo sapiens, UniProt O60674). Nature of the data set: Inhibition of JAK2 signaling pathway in human CHEP cells assessed as inhibition of EPO-induced cell survival preincubated for 1 hr followed by EPO addition and measured after 48 hrs by CellTiter-Glo luminescent assay. Type of data set: toxicity, cell-based. (In general: In ATP-based viability assays light output follows the ATP content of the culture.)

For data set [6], the target named is T1, Cytochrome P450 3A4. The data set is described as follows: Inhibition of CYP3A4 (unknown origin) in presence of NADPH. Type of data set: ADME.
The target in data set [7] is T2, Tyrosine-protein kinase SYK (Homo sapiens, UniProt P43405). Nature of the data set: Inhibition of SYK (unknown origin) assessed as reduction of IgM-stimulated ERK phosphorylation by Cell-based assay.
The target in a further data set is T3, Cytochrome P450 1A2 (Homo sapiens, UniProt P05177).
T3 sequence (P05177 whole entry): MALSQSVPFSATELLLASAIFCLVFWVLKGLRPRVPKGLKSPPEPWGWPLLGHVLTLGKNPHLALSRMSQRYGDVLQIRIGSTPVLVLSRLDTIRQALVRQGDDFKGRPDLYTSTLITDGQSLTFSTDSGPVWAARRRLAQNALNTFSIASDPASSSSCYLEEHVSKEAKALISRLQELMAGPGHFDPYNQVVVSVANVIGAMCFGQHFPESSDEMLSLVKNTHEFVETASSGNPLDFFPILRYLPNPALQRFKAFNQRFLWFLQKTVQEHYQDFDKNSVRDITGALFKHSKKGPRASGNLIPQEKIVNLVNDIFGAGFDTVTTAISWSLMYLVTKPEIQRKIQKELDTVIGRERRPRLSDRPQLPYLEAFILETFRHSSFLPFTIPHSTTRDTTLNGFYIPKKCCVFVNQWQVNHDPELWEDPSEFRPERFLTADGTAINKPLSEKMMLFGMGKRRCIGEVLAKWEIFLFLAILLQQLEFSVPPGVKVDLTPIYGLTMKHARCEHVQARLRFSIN
The data set is described as follows: Inhibition of CYP1A2 (unknown origin). Format: ADME.

For data set [8], the target named is T2, Tyrosine-protein kinase SYK. Nature of the data set: Inhibition of human full length recombinant N-terminal GST-tagged SYK expressed in baculovirus expression system at 250 nM by Z'-lyte assay.
The species named for another data set is Homo sapiens. The data set is described as follows: Selectivity ratio of IC50 for inhibition of JAK2 signaling pathway in EPO-stimulated human CHEP cells to IC50 for inhibition of JAK1/JAK3 in human primary T-cells assessed as reduction of IL-2 stimulated STAT5 phosphorylation.
Data set [9] has as its system Rattus norvegicus. The data set is described as follows: Antiarthritic activity against collagen-induced arthritis Lewis rat model assessed as reduction in disease severity by measuring inhibition of hind limb clinical score at 100 mg/kg, po qd measured upto 20 days. Type of data set: functional. The following applies: 480 h, time <= 20 day.
Data set [10] concerns Rattus norvegicus. The data set is described as follows: Antiarthritic activity against collagen-induced arthritis Lewis rat model assessed as reduction in disease severity by measuring inhibition of hind limb clinical score at 50 mg/kg, po bid measured upto 20 days. Format: functional. The following applies: 480 h, time <= 20 day.
The nature of data set [11]: AUC in Sprague-Dawley rat 5 mg/kg, po. Set-up: dose 5 mg/kg, route po. The following applies: in vivo. Type of data set: ADME, organism-based.
The test system of data set [12] is Rattus norvegicus. Nature of the data set: Antiarthritic activity against collagen-induced arthritis Lewis rat model assessed as reduction in disease severity by measuring inhibition of hind limb clinical score at 25 mg/kg, po bid measured upto 20 days. Format: functional. The following applies: 480 h, time <= 20 day.
Data set [13] in a line: Plasma protein binding in rat. Format: ADME, cell-free. The following applies: read-out: PPB (converted).
Data set [14] in a line: Plasma protein binding in human. The note with it: read-out: PPB (converted). Format: ADME, cell-free.

Structures are written as SMILES.

JAK3/JAK1, sequence (P52333 whole entry): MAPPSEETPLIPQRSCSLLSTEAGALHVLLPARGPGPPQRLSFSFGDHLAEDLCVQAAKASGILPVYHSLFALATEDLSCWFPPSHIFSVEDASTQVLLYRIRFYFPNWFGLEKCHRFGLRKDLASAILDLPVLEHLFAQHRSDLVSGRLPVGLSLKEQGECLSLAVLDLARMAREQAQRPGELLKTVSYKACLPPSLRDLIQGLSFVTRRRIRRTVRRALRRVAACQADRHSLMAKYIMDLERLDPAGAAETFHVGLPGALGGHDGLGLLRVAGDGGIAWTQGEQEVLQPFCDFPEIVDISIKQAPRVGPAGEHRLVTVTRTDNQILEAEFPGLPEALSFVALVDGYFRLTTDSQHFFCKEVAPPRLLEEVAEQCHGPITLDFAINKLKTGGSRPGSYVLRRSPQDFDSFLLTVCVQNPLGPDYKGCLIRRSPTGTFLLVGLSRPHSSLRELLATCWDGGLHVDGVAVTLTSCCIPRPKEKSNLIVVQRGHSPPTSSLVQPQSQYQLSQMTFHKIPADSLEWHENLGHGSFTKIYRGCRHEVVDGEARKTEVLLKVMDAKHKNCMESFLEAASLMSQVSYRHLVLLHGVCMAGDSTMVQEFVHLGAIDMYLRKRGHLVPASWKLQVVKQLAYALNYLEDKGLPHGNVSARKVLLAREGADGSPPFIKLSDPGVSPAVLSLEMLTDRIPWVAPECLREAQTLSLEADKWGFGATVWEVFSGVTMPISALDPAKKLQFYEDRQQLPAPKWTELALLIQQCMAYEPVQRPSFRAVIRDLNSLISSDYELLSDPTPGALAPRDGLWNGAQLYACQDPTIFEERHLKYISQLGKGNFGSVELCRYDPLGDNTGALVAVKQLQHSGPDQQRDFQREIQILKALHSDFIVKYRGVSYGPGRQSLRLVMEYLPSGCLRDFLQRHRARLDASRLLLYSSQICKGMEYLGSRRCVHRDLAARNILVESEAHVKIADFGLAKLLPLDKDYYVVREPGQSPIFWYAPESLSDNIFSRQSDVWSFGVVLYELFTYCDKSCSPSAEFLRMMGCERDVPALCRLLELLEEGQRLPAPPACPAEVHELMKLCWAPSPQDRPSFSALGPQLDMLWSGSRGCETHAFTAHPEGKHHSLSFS
JAK3/JAK1, sequence (P23458 whole entry): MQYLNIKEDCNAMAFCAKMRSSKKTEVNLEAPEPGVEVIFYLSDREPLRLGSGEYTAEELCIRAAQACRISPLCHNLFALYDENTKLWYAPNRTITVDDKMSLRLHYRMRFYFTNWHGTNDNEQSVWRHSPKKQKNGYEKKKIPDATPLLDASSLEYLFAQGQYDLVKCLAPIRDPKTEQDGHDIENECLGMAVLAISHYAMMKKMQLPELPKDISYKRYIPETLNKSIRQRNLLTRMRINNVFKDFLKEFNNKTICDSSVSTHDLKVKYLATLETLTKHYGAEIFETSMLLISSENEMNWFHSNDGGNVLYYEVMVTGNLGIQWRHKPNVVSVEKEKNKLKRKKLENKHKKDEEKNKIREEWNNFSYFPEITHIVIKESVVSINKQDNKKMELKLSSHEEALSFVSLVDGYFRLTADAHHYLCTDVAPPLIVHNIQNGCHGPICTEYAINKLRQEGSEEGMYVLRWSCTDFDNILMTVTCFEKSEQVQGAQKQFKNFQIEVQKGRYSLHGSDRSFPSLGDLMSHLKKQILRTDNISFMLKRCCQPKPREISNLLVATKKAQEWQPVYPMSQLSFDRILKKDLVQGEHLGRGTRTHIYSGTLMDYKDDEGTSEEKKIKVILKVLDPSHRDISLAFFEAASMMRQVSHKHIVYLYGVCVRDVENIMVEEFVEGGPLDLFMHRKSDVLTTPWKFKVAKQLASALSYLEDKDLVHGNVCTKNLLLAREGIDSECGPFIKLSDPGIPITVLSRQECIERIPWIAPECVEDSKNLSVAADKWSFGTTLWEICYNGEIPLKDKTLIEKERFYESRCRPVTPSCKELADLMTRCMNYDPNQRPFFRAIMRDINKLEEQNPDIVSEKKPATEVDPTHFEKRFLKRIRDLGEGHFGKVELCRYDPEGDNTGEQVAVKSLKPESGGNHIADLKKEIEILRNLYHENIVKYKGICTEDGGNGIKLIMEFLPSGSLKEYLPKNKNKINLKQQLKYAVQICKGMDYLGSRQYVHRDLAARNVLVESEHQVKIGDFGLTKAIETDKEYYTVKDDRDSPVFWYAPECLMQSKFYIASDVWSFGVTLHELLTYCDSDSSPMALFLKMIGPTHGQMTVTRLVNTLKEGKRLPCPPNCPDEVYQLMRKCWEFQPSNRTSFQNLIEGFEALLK
Tyrosine-protein kinase JAK2, sequence (O60674 whole entry): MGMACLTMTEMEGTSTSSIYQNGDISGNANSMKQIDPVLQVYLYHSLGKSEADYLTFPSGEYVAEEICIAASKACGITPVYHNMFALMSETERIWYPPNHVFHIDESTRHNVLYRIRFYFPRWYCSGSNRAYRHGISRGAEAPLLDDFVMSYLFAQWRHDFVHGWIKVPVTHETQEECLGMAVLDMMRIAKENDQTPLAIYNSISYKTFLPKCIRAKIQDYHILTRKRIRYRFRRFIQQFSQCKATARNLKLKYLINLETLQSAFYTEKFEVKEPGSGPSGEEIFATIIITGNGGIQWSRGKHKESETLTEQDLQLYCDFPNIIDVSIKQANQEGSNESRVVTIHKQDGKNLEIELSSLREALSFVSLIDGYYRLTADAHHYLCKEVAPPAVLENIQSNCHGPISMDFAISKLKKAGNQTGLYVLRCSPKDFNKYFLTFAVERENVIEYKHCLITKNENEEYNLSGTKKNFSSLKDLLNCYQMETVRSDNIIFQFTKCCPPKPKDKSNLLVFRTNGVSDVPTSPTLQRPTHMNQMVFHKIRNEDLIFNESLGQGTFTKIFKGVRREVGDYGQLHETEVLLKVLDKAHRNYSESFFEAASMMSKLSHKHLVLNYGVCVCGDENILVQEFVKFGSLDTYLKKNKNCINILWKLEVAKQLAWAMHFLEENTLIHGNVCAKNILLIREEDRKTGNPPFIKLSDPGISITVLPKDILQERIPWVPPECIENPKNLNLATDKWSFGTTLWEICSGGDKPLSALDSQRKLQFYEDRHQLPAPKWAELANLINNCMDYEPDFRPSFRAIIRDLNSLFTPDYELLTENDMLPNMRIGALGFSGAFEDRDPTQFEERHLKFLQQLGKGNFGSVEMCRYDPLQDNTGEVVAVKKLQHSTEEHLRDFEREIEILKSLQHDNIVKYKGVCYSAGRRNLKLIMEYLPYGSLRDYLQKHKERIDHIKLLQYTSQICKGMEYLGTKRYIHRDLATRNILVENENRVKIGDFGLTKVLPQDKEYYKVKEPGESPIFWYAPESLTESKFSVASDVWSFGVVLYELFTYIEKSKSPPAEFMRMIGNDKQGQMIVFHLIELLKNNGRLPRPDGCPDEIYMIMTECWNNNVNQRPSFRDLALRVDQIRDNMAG
T1 sequence (P08684 whole entry): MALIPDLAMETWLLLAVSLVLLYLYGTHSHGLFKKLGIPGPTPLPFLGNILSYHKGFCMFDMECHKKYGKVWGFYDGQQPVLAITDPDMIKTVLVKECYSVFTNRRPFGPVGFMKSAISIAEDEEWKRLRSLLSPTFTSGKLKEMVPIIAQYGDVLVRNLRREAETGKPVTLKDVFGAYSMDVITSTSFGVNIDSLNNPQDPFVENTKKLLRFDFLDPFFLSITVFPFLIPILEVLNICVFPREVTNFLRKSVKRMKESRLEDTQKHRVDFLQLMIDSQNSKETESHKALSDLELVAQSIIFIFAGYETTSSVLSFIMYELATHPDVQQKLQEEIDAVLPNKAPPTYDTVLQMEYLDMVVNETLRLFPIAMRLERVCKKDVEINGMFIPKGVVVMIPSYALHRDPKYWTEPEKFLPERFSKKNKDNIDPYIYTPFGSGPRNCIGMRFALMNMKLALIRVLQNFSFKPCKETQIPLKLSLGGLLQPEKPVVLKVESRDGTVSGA

By IC50 is commonly meant the midpoint of a concentration-inhibition curve. In general, inhibition in vivo refers to the share of the control response that was lost under treatment. As usually defined, the bioavailability is the share of a dose that reaches the circulation, judged against a reference dose that is usually intravenous. A higher bioavailability goes with good availability. Take `Cc1cnc(Nc2ccc(N3CCOCC3)nc2)nc1Nc1ccc2oc(=O)[nH]c2c1`: the IC50 on JAK3/JAK1 was determined as 0.022 µM. For the same molecule, the inhibition in vivo at 40 mg/kg in [1] was 36%. In [2], the bioavailability is under 1%.
Consider `COc1cc(Nc2ncc(C)c(Nc3ccc4oc(=O)[nH]c4c3)n2)cc(C(F)(F)F)c1`, for which the IC50 on Cytochrome P450 3A4 [3] is 7.2 µM; in data set [5] it was 1.69 µM; on Cytochrome P450 3A4 [6] it was 0.5 µM. Also, the inhibition in vivo at 5 mg/kg in [4] came to 78%. Besides, in data set [1], the inhibition in vivo at 40 mg/kg came out at 90%.
For the molecule `Cc1cnc(Nc2cccc(S(N)(=O)=O)c2)nc1Nc1ccc2c(c1)NC(=O)CO2`, the IC50 in [7] came to 0.7 µM.
With `COc1cc(Nc2ncc(C)c(Nc3ccc4oc(=O)[nH]c4c3)n2)cc(C(F)F)c1`, the IC50 was over 10 µM against Cytochrome P450 3A4 [3], 0.173 µM in [5] and 3 µM at Cytochrome P450 3A4 [6]. In addition, the inhibition in vivo at 5 mg/kg in data set [4] is 66%. In data set [1], the inhibition in vivo at 40 mg/kg turned out to be 92%.
Regarding `Cc1cnc(Nc2cccc(NS(C)(=O)=O)c2)nc1Nc1ccc2oc(=O)[nH]c2c1`, the inhibition in vivo at 40 mg/kg in [1] was 15%.
For `Cc1cnc(Nc2ccc(C#N)cc2)nc1Nc1ccc2oc(=O)[nH]c2c1`, the inhibition in vivo at 40 mg/kg in [1] came to 0%.
What is called Ki is the equilibrium dissociation constant of an inhibitor or competing ligand from its target. A higher Ki goes with a looser hold on the target. On to `COc1cc(Nc2ncc(C)c(Nc3ccc4oc(=O)[nH]c4c3)n2)cc(C)c1C`, for which the IC50 on Cytochrome P450 3A4 [3] was over 10 µM; in data set [5], 1.11 µM; on Cytochrome P450 3A4 [6], 2.9 µM. Also, the inhibition in vivo at 5 mg/kg in data set [4] was 68%. Besides, on Cytochrome P450 1A2, the Ki is 6 µM. Besides, the inhibition in vivo at 40 mg/kg in [1] came to 90%.
With `COc1cc(C)cc(Nc2ncc(C)c(Nc3ccc4oc(=O)[nH]c4c3)n2)c1`, the IC50 at Cytochrome P450 3A4 [3] is over 10 µM; in data set [5] it was 0.354 µM; at Cytochrome P450 3A4 [6], over 10 µM. Moreover, in [4], the inhibition in vivo at 5 mg/kg came out at 55%. The inhibition in vivo at 40 mg/kg in data set [1] was 91%.
For orientation: inhibition means the percentage by which the read-out fell short of the control. `COc1cc(Nc2ncc(C)c(Nc3ccc4oc(=O)[nH]c4c3)n2)cc(C)c1F`: the inhibition in [8] was under 50%. In the data set listed under Homo sapiens, the Ratio IC50 was found to be 24.
With `Cc1cnc(Nc2cccc(C#N)c2)nc1Nc1ccc2oc(=O)[nH]c2c1`, the inhibition in vivo at 40 mg/kg in [1] amounted to 1%.
With `COc1cc(CF)cc(Nc2ncc(C)c(Nc3ccc4oc(=O)[nH]c4c3)n2)c1`, the IC50 against Cytochrome P450 3A4 [3] was over 10 µM; in data set [5], 0.17 µM; on Cytochrome P450 3A4 [6], 8 µM.
For `COc1cc(Nc2ncc(C)c(Nc3ccc4oc(=O)[nH]c4c3)n2)cc(OC)c1`, in data set [5], the IC50 came to 0.132 µM.
Usually AUC stands for the area under the concentration-time curve, a measure of exposure. Read a low AUC as low exposure. For `COc1cc(Nc2ncc(C)c(Nc3ccc4oc(=O)[nH]c4c3)n2)cc(C)c1F.O=S(=O)(O)c1ccccc1`, the inhibition in vivo at 100 mg/kg in the data set with Rattus norvegicus [9] is 98%. Besides, the inhibition in vivo at 50 mg/kg with Rattus norvegicus [10] was determined as 98%. This molecule had a bioavailability in [2] of 37%. Moreover, the AUC in data set [11] turned out to be 0.507 µg·h/mL. For the same molecule, the inhibition in vivo at 25 mg/kg in the data set on Rattus norvegicus [12] came to 75%.
Regarding `Cc1cnc(Nc2ccc(N3CCN(C)CC3)nc2)nc1Nc1ccc2oc(=O)[nH]c2c1`, the IC50 on Cytochrome P450 3A4 [3] was over 10 µM; on JAK3/JAK1, 0.02 µM; in [5], 0.084 µM; at Cytochrome P450 3A4 [6], 4 µM. Besides, in data set [4], the inhibition in vivo at 5 mg/kg was 30%. The figures for the fraction unbound in data set [13] and in [14] were 0.16 and 0.19, respectively. For the same molecule, the inhibition in vivo at 40 mg/kg in data set [1] was found to be 82%. Moreover, in the data set listed under Homo sapiens, the Ratio IC50 stood at 4. Besides, the bioavailability in data set [2] stood at 4%.
As for `Cc1cnc(Nc2ccc(F)c(C(F)(F)F)c2)nc1Nc1ccc2oc(=O)[nH]c2c1`, the IC50 is over 10 µM on Cytochrome P450 3A4 [3], 0.503 µM in [5] and 0.7 µM on Cytochrome P450 3A4 [6].
For the molecule `Cc1cnc(Nc2ccc(NS(C)(=O)=O)cc2)nc1Nc1ccc2oc(=O)[nH]c2c1`, the inhibition in vivo at 40 mg/kg in [1] is 8%.
With `COc1cc(Nc2ncc(C)c(Nc3ccc4oc(=O)[nH]c4c3)n2)cc(OC)c1OC`, the IC50 was over 10 µM at Cytochrome P450 3A4 [3], 0.026 µM at JAK3/JAK1, 0.081 µM in [5] and 1.1 µM on Cytochrome P450 3A4 [6]. The inhibition in vivo at 40 mg/kg in data set [1] is 88%. Besides, the Ratio IC50 in the data set filed under Homo sapiens is 3.
As to `Cc1cnc(Nc2cccc(S(C)(=O)=O)c2)nc1Nc1ccc2oc(=O)[nH]c2c1`, the inhibition in vivo at 40 mg/kg in data set [1] was 56%.
As to `Cc1cnc(Nc2cccc(S(N)(=O)=O)c2)nc1Nc1ccc2oc(=O)[nH]c2c1`, the IC50 in [7] was found to be 5 µM. Besides, the inhibition in vivo at 40 mg/kg in data set [1] stood at 30%.
Turning to `COc1ccc(Nc2ncc(C)c(Nc3ccc4oc(=O)[nH]c4c3)n2)cc1C(F)(F)F`, the IC50 at Cytochrome P450 3A4 [3] amounted to 4.8 µM; in data set [5] it was 1.98 µM; on Cytochrome P450 3A4 [6] it was 0.4 µM. Besides, the inhibition in vivo at 40 mg/kg in data set [1] was found to be 32%.
With `COc1cc(Nc2ncc(C)c(Nc3ccc4oc(=O)[nH]c4c3)n2)cc(C)c1OC`, the values for the IC50 (on Cytochrome P450 3A4 [3]; in data set [5]; on Cytochrome P450 3A4 [6]) were over 10 µM, 0.042 µM and 2.7 µM, respectively.

The values are drawn from ChEMBL document CHEMBL5113550, “Optimization of Pyrimidine Compounds as Potent JAK1 Inhibitors and the Discovery of R507 as a Clinical Candidate” (ACS Med Chem Lett, 2022).
